Key:
Experiment in all cases: relative viability (nuclei count vs DMSO), 5 days (fraction); higher = more cells survive
[1] = test system: LCLC-97TM1
In short: (§1)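 Five library-drug doses in √10 steps were combined with a fixed anchor-drug dose, or a single drug was given alone, by pin tool to lung cancer cell lines in 1536-well plates the day after seeding. Nuclei were stained and counted after 5 days. Relative viability is the nuclei count in treated wells over that in vehicle wells, taken as the median of duplicate plates.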

[2] = test system: NCI-H661
In short: as §1

[3] = test system: NCI-H650
In short: as §1

[4] = test system: H3255
In short: as §1

[5] = test system: 201T
In short: as §1

[6] = test system: PC-14
In short: as §1

[7] = test system: NCI-H1666
In short: as §1

[8] = test system: NCI-H520
In short: as §1

[9] = test system: NCI-H1915
In short: as §1

[10] = test system: EPLC-272H
In short: as §1

[11] = test system: RERF-LC-KJ
In short: as §1

[12] = test system: NCI-H23
In short: as §1

[13] = test system: NCI-H2405
In short: as §1

[14] = test system: COR-L 105
In short: as §1

[15] = test system: NCI-H647
In short: as §1

[16] = test system: NCI-H322M
In short: as §1

[17] = test system: NCI-H2087
In short: as §1

[18] = test system: HCC-78
In short: as §1

[19] = test system: HCC-827
In short: as §1

[20] = test system: NCI-H2347
In short: as §1

[21] = test system: ChaGo-K-1
In short: as §1

[22] = test system: NCI-H2126
In short: as §1

[23] = test system: LC-2-ad
In short: as §1

**Q.** `O=C(O)c1ccc(-c2c[nH]c3ncc(-c4ccccc4)cc23)cc1C1CCCC1` + CC(=O)c1c(C)c2cnc(Nc3ccc(N4CCNCC4)cn3)nc2n(C2CCCC2)c1=O [Palbociclib] (partner 0.5 µM) was tested. Which relative viability ([1]; first compound 0.04 µM) did it give?
**A.** The relative viability was 0.267.

**Q.** And the relative viability ([1]; first compound 0.1265 µM)?
**A.** The relative viability was 0.222.

**Q.** What about the relative viability ([1]; first compound 0.4 µM) of the same molecule?
**A.** Its relative viability is 0.187.

**Q.** And the relative viability ([1]; first compound 1.265 µM)?
**A.** The relative viability was 0.217.

**Q.** What about the relative viability ([2]; first compound 0.04 µM) of the same molecule?
**A.** Its relative viability is 0.414.

**Q.** What about the relative viability ([2]; first compound 0.1265 µM) of the same molecule?
**A.** The relative viability was 0.411.

**Q.** And the relative viability ([2]; first compound 0.4 µM)?
**A.** Its relative viability is 0.406.

**Q.** What about the relative viability ([2]; first compound 1.265 µM) of the same molecule?
**A.** Its relative viability is 0.389.

**Q.** What about the relative viability ([3]; first compound 0.04 µM) of the same molecule?
**A.** Its relative viability is 0.32.

**Q.** And the relative viability ([3]; first compound 0.1265 µM)?
**A.** Its relative viability is 0.344.

**Q.** What about the relative viability ([3]; first compound 0.4 µM) of the same molecule?
**A.** Its relative viability is 0.312.

**Q.** And the relative viability ([3]; first compound 1.265 µM)?
**A.** Its relative viability is 0.279.

**Q.** What about the relative viability ([4]; first compound 0.04 µM) of the same molecule?
**A.** Its relative viability is 0.303.

**Q.** What about the relative viability ([4]; first compound 0.1265 µM) of the same molecule?
**A.** The relative viability was 0.325.

**Q.** What about the relative viability ([4]; first compound 0.4 µM) of the same molecule?
**A.** The relative viability was 0.286.

**Q.** What about the relative viability ([4]; first compound 1.265 µM) of the same molecule?
**A.** Its relative viability is 0.312.

**Q.** And the relative viability ([5]; first compound 0.04 µM)?
**A.** Its relative viability is 0.353.

**Q.** What about the relative viability ([5]; first compound 0.1265 µM) of the same molecule?
**A.** Its relative viability is 0.364.

**Q.** And the relative viability ([5]; first compound 0.4 µM)?
**A.** Its relative viability is 0.341.

**Q.** And the relative viability ([5]; first compound 1.265 µM)?
**A.** Its relative viability is 0.364.

**Q.** And the relative viability ([6]; first compound 0.04 µM)?
**A.** The relative viability was 0.473.

**Q.** And the relative viability ([6]; first compound 0.1265 µM)?
**A.** The relative viability was 0.532.

**Q.** And the relative viability ([6]; first compound 0.4 µM)?
**A.** The relative viability was 0.396.

**Q.** What about the relative viability ([6]; first compound 1.265 µM) of the same molecule?
**A.** The relative viability was 0.486.

**Q.** And the relative viability ([7]; first compound 0.04 µM)?
**A.** Its relative viability is 0.604.

**Q.** What about the relative viability ([7]; first compound 0.1265 µM) of the same molecule?
**A.** The relative viability was 0.622.

**Q.** And the relative viability ([7]; first compound 0.4 µM)?
**A.** Its relative viability is 0.609.

**Q.** And the relative viability ([7]; first compound 1.265 µM)?
**A.** Its relative viability is 0.547.

**Q.** And the relative viability ([8]; first compound 0.04 µM)?
**A.** The relative viability was 0.192.

**Q.** And the relative viability ([8]; first compound 0.1265 µM)?
**A.** The relative viability was 0.217.

**Q.** And the relative viability ([8]; first compound 0.4 µM)?
**A.** Its relative viability is 0.226.

**Q.** And the relative viability ([8]; first compound 1.265 µM)?
**A.** The relative viability was 0.182.

**Q.** And the relative viability ([9]; first compound 0.04 µM)?
**A.** Its relative viability is 0.553.

**Q.** What about the relative viability ([9]; first compound 0.1265 µM) of the same molecule?
**A.** The relative viability was 0.527.

**Q.** And the relative viability ([9]; first compound 0.4 µM)?
**A.** Its relative viability is 0.452.

**Q.** And the relative viability ([9]; first compound 1.265 µM)?
**A.** Its relative viability is 0.428.

**Q.** And the relative viability ([10]; first compound 0.04 µM)?
**A.** The relative viability was 0.337.

**Q.** And the relative viability ([10]; first compound 0.1265 µM)?
**A.** Its relative viability is 0.332.

**Q.** And the relative viability ([10]; first compound 0.4 µM)?
**A.** The relative viability was 0.321.

**Q.** And the relative viability ([10]; first compound 1.265 µM)?
**A.** Its relative viability is 0.294.

**Q.** And the relative viability ([11]; first compound 0.04 µM)?
**A.** Its relative viability is 1.01.

**Q.** And the relative viability ([11]; first compound 0.1265 µM)?
**A.** The relative viability was 1.02.

**Q.** What about the relative viability ([11]; first compound 0.4 µM) of the same molecule?
**A.** Its relative viability is 0.97.

**Q.** And the relative viability ([11]; first compound 1.265 µM)?
**A.** Its relative viability is 0.875.

**Q.** And the relative viability ([12]; first compound 0.04 µM)?
**A.** The relative viability was 0.577.

**Q.** And the relative viability ([12]; first compound 0.1265 µM)?
**A.** Its relative viability is 0.491.

**Q.** What about the relative viability ([12]; first compound 0.4 µM) of the same molecule?
**A.** Its relative viability is 0.483.

**Q.** What about the relative viability ([12]; first compound 1.265 µM) of the same molecule?
**A.** The relative viability was 0.308.

**Q.** What about the relative viability ([13]; first compound 0.04 µM) of the same molecule?
**A.** The relative viability was 0.529.

**Q.** And the relative viability ([13]; first compound 0.1265 µM)?
**A.** The relative viability was 0.557.

**Q.** And the relative viability ([13]; first compound 0.4 µM)?
**A.** Its relative viability is 0.517.

**Q.** What about the relative viability ([13]; first compound 1.265 µM) of the same molecule?
**A.** The relative viability was 0.473.

**Q.** And the relative viability ([14]; first compound 0.04 µM)?
**A.** Its relative viability is 0.422.

**Q.** And the relative viability ([14]; first compound 0.1265 µM)?
**A.** Its relative viability is 0.392.

**Q.** What about the relative viability ([14]; first compound 0.4 µM) of the same molecule?
**A.** The relative viability was 0.349.

**Q.** And the relative viability ([14]; first compound 1.265 µM)?
**A.** Its relative viability is 0.411.

**Q.** And the relative viability ([15]; first compound 0.04 µM)?
**A.** The relative viability was 0.399.

**Q.** And the relative viability ([15]; first compound 0.1265 µM)?
**A.** Its relative viability is 0.434.

**Q.** And the relative viability ([15]; first compound 0.4 µM)?
**A.** Its relative viability is 0.453.

**Q.** And the relative viability ([15]; first compound 1.265 µM)?
**A.** Its relative viability is 0.33.

**Q.** And the relative viability ([16]; first compound 0.04 µM)?
**A.** The relative viability was 0.466.

**Q.** What about the relative viability ([16]; first compound 0.1265 µM) of the same molecule?
**A.** The relative viability was 0.461.

**Q.** What about the relative viability ([16]; first compound 0.4 µM) of the same molecule?
**A.** Its relative viability is 0.448.

**Q.** And the relative viability ([16]; first compound 1.265 µM)?
**A.** Its relative viability is 0.461.

**Q.** And the relative viability ([17]; first compound 0.04 µM)?
**A.** Its relative viability is 0.214.

**Q.** And the relative viability ([17]; first compound 0.1265 µM)?
**A.** The relative viability was 0.267.

**Q.** What about the relative viability ([17]; first compound 0.4 µM) of the same molecule?
**A.** Its relative viability is 0.214.

**Q.** And the relative viability ([17]; first compound 1.265 µM)?
**A.** Its relative viability is 0.248.

**Q.** What about the relative viability ([18]; first compound 0.04 µM) of the same molecule?
**A.** The relative viability was 0.494.

**Q.** And the relative viability ([18]; first compound 0.1265 µM)?
**A.** Its relative viability is 0.467.

**Q.** And the relative viability ([18]; first compound 0.4 µM)?
**A.** Its relative viability is 0.488.

**Q.** And the relative viability ([18]; first compound 1.265 µM)?
**A.** Its relative viability is 0.435.

**Q.** And the relative viability ([19]; first compound 0.04 µM)?
**A.** The relative viability was 0.354.

**Q.** What about the relative viability ([19]; first compound 0.1265 µM) of the same molecule?
**A.** Its relative viability is 0.474.

**Q.** What about the relative viability ([19]; first compound 0.4 µM) of the same molecule?
**A.** Its relative viability is 0.434.

**Q.** And the relative viability ([19]; first compound 1.265 µM)?
**A.** The relative viability was 0.328.

**Q.** What about the relative viability ([20]; first compound 0.04 µM) of the same molecule?
**A.** The relative viability was 0.453.

**Q.** And the relative viability ([20]; first compound 0.1265 µM)?
**A.** The relative viability was 0.446.

**Q.** What about the relative viability ([20]; first compound 0.4 µM) of the same molecule?
**A.** The relative viability was 0.386.

**Q.** What about the relative viability ([20]; first compound 1.265 µM) of the same molecule?
**A.** The relative viability was 0.438.

**Q.** And the relative viability ([21]; first compound 0.04 µM)?
**A.** The relative viability was 0.958.

**Q.** What about the relative viability ([21]; first compound 0.1265 µM) of the same molecule?
**A.** The relative viability was 0.966.

**Q.** And the relative viability ([21]; first compound 0.4 µM)?
**A.** The relative viability was 0.945.

**Q.** What about the relative viability ([21]; first compound 1.265 µM) of the same molecule?
**A.** The relative viability was 0.834.

**Q.** And the relative viability ([22]; first compound 0.04 µM)?
**A.** Its relative viability is 0.361.

**Q.** What about the relative viability ([22]; first compound 0.1265 µM) of the same molecule?
**A.** The relative viability was 0.358.

**Q.** And the relative viability ([22]; first compound 0.4 µM)?
**A.** The relative viability was 0.369.

**Q.** What about the relative viability ([22]; first compound 1.265 µM) of the same molecule?
**A.** Its relative viability is 0.345.

**Q.** And the relative viability ([23]; first compound 0.04 µM)?
**A.** Its relative viability is 0.425.

**Q.** And the relative viability ([23]; first compound 0.1265 µM)?
**A.** The relative viability was 0.541.

**Q.** And the relative viability ([23]; first compound 0.4 µM)?
**A.** The relative viability was 0.489.

**Q.** And the relative viability ([23]; first compound 1.265 µM)?
**A.** The relative viability was 0.42.

Source: the supplement of paper PMC10307832
